{
  "source": "patent US6897036B2",
  "about": "“Fluorescent detection of peroxidase enzymes” (Lumigen, Inc., priority 2002, dated 2005)",
  "molecular_target": "T1, HRP (Armoracia rusticana, UniProt P00433)",
  "T1 sequence (P00433 31-338)": "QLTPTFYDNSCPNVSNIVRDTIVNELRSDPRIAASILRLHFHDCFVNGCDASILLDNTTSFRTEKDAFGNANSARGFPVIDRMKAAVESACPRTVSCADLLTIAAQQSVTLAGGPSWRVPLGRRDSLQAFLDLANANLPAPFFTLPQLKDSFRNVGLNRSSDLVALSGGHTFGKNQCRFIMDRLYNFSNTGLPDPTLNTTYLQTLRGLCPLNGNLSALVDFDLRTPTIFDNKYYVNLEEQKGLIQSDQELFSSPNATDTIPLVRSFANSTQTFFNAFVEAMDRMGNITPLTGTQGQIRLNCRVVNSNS",
  "assay": "Detection of HRP with acridan substrate 13 by chemiluminescence and fluorescence (FIG. 5)",
  "type": "biochemical, horseradish",
  "conditions": "0.05 mM substrate",
  "procedure": "FIG. 5 is a graph showing the linearity of detection of HRP using reagent compositions containing substrate 13 with fluorescence and chemiluminescence detection. A solution containing 0.05 mM compound 13, 0.1 mM 4-phenylphenol, 0.5 mM urea peroxide, 1 mM EDTA, 0.025% TWEEN 20 in 10 mM tris, pH 8.0 was reacted with the indicated quantities of HRP. Chemiluminescence intensity was measured 10 min after addition of enzyme, fluorescence at 515 nm was measured 30 min after addition of enzyme.\nChemiluminescent HRP detection limit using a reagent composition containing 0.05 mM 2′,3′,6′-trifluorophenyl 3-methoxy-10-methylacridan-9-carboxylate (compound 13), 0.1 mM 4-phenylphenol, 0.5 mM urea peroxide, 1 mM EDTA, and 0.025% TWEEN 20 in 0.01 M tris buffer, pH 8.0 was obtained on a Labsystems Luminoskan microtiter plate reader. White Microlite 1 FB 12-well strips (Dynatech Laboratories) containing 100 μL of the reagent in each well were reacted with 10 μL of HRP dilutions. Light intensity was measured at 10 min.\nSensitive detection of HRP was achieved using the reaction solutions of Example 22 producing fluorescence by the second mode. After making the chemiluminescence measurement, the strips were transferred to the fluorometer and fluorescence intensity determined at 530 nm with excitation at 380 nm.",
  "data": [
    {"smiles": "COc1ccc2c(c1)N(C)c1ccccc1C2C(=O)Oc1c(F)ccc(F)c1F", "note": "(centres unmarked) [Compound 13, 2′,3′,6′-trifluorophenyl 3-methoxy-10-methylacridan-9-carboxylate]", "values": [
      {"measurement": "Detectable amount of HRP (fluorescence, second mode)", "setting": "tris pH 8.0, fluorescence at 530 nm, excitation 380 nm", "value": "less than 1 amol"},
      {"measurement": "Sensitivity of fluorescent detection compared with chemiluminescent detection (in words)", "setting": "tris pH 8.0, same reaction solutions", "value": "equivalent to chemiluminescent detection"}
    ]}
  ]
}
